Source: patent publication US10800792B2, “Inhibitors of Bruton's tyrosine kinase and method of their use” (JANSSEN PHARMACEUTICA NV, priority 2015, dated 2020)

Target: unphosphorylated-BTK kinase domain (UP-BTK), GST-tagged human BTK (389-659aa) (Homo sapiens (Human), UniProt Q06187)
Test: BTK kinase Lanthascreen binding assay
Settings: Lanthascreen tracer competition, 60 minutes incubation, pIC50 = negative log of the IC50 in molar
How it was run: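 Tracer-displacement binding assay against the non-phosphorylated enzyme, read by Lanthascreen. Reported: pIC50.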

Sequence of unphosphorylated-BTK kinase domain (UP-BTK), GST-tagged human BTK (389-659aa) (Q06187 389-659): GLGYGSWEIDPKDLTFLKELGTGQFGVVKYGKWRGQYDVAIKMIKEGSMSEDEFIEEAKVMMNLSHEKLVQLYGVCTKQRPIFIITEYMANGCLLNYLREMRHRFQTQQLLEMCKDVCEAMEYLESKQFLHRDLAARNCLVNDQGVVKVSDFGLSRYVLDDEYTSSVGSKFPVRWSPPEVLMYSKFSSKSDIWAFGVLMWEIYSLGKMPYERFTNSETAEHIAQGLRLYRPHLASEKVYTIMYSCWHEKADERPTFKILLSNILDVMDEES

| SMILES | BTK_I_binding pIC50 | IC50 (read-out: BTK_I_binding pIC50 (converted)) |
| --- | --- | --- |
| CC(C)c1cccc(N2C(=O)Nc3c(C(=O)N[C@@H]4CCCNC4)sc4nccc2c34)c1 [Example 630, (R)-5-(3-Isopropylphenyl)-4-oxo-N-(piperidin-3-yl)-4,5-dihydro-3H-1-thia-3,5,8-triazaacenaphthylene-2-carboxamide] | 5.9 |  |
| C=CC(=O)N1CCC[C@@H](NC(=O)c2sc3nccc4c3c2NC(=O)N4c2cccc(C3COC3)c2)C1 [Example 632, (R)—N-(1-Acryloylpiperidin-3-yl)-5-(3-(oxetan-3-yl)phenyl)-4-oxo-4,5-dihydro-3H-1-thia-3,5,8-triazaacenaphthylene-2-carboxamide] | 5.9 |  |
| C=CC(=O)N1CCC[C@@H](NC(=O)c2sc3nccc4c3c2NC(=O)N4c2ccc(OC(C)C)c(C)c2)C1 [Example 633, (R)—N-(1-Acryloylpiperidin-3-yl)-5-(4-isopropoxy-3-methylphenyl)-4-oxo-4,5-dihydro-3H-1-thia-3,5,8-triazaacenaphthylene-2-carboxamide] | 5.8 |  |
| CC(C)Oc1cccc(N2C(=O)Nc3c(C(=O)N[C@@H]4CCCNC4)sc4nccc2c34)c1 [Example 637, (R)-5-(3-Isopropoxyphenyl)-4-oxo-N-(piperidin-3-yl)-4,5-dihydro-3H-1-thia-3,5,8-triazaacenaphthlene-2-carboxamide] | 5.7 |  |
| C=CC(=O)N1CCC[C@@H](NC(=O)c2sc3nccc4c3c2NC(=O)N4c2cccc(C(C)(C)C)c2)C1 [Example 638, (R)—N-(1-Acryloylpiperidin-3-yl)-5-(3-(tert-butyl)phenyl)-4-oxo-4,5-dihydro-3H-1-thia-3,5,8-triazaacenaphthylene-2-carboxamide] | 5.7 |  |
| CC(=O)c1cccc(N2C(=O)Nc3c(C(=O)N[C@@H]4CCCNC4)sc4nccc2c34)c1 [Example 643, (R)-5-(3-Acetylphenyl)-4-oxo-N-(piperidin-3-yl)-4,5-dihydro-3H-1-thia-3,5,8-triazaacenaphthylene-2-carboxamide] | 5.1 |  |
| CC(C)(C)c1cccc(N2C(=O)Nc3c(C(=O)N[C@@H]4CCCNC4)sc4nccc2c34)c1 [Example 646, (R)-5-(3-(tert-Butyl)phenyl)-4-oxo-N-(piperidin-3-yl)-4,5-dihydro-3H-1-thia-3,5,8-triazaacenaphthylene-2-carboxamide] | <5 |  |
| O=C(N[C@@H]1CCCNC1)c1sc2nccc3c2c1NC(=O)N3c1cccc(-c2ccncc2)c1 [Example 647, (R)-4-Oxo-N-(piperidin-3-yl)-5-(3-(pyridin-4-yl)phenyl)-4,5-dihydro-3H-1-thia-3,5,8-triazaacenaphthylene-2-carboxamide] |  | > 10 µM |
| CC(C)(C)OC(=O)N1CCC[C@@H](NC(=O)c2sc3nccc4c3c2NC(=O)N4c2cccc(C(C)(C)C)c2)C1 [Example 648, (R)-tert-Butyl 3-(5-(3-(tert-butyl)phenyl)-4-oxo-4,5-dihydro-3H-1-thia-3,5,8-triazaacenaphthylene-2-carboxamido)piperidine-1-carboxylate] | <5 |  |
| CC(C)(C)OC(=O)N1CCC[C@@H](NC(=O)c2sc3nccc4c3c2NC(=O)N4c2ccc(S(=O)(=O)C(C)(C)C)cc2)C1 [Example 651, (R)-tert-Butyl 3-(5-(4-(tert-butylsulfonyl)phenyl)-4-oxo-4,5-dihydro-3H-1-thia-3,5,8-triazaacenaphthylene-2-carboxamido)piperidine-1-carboxylate] | <5 |  |
| CC(C)(C)OC(=O)N1CCC[C@@H](NC(=O)c2sc3nccc4c3c2NC(=O)N4c2ccc(OC(C)(C)C)cc2)C1 [Example 652, (R)-tert-Butyl 3-(5-(4-(tert-butoxy)phenyl)-4-oxo-4,5-dihydro-3H-1-thia-3,5,8-triazaacenaphthylene-2-carboxamido)piperidine-1-carboxylate] | <5 |  |
| CC(C)(C)OC(=O)N1CCC[C@@H](NC(=O)c2sc3nccc4c3c2NC(=O)N4c2ccc(OC3CCC3)nc2)C1 [Example 654, (R)-tert-Butyl 3-(5-(6-cyclobutoxypyridin-3-yl)-4-oxo-4,5-dihydro-3H-1-thia-3,5,8-triazaacenaphthylene-2-carboxamido)piperidine-1-carboxylate] | <5 |  |

Continued, values first:

| BTK_I_binding pIC50 | IC50 (read-out: BTK_I_binding pIC50 (converted)) | SMILES |
| --- | --- | --- |
| 5.9 |  | C=CC(=O)N1CCC[C@@H](NC(=O)c2sc3nccc4c3c2NC(=O)N4c2cccc(-c3ccncc3)c2)C1 [Example 631, (R)—N-(1-Acryloylpiperidin-3-yl)-4-oxo-5-(3-(pyridin-4-yl)phenyl)-4,5-dihydro-3H-1-thia-3,58-triazaacenaphthylene-2-carboxamide] |
| 5.8 |  | O=C(N[C@@H]1CCCNC1)c1sc2nccc3c2c1NC(=O)N3c1ccnc(C2CCC2)c1 [Example 634, (R)-5-(2-Cyclobutylpyridin-4-yl)-4-oxo-N-(piperidin-3-yl)-4,5-dihydro-3H-1-thia-3,5,8-triazaacenaphthylene-2-carboxamide] |
| 5.8 |  | C=CC(=O)N1CCC[C@@H](NC(=O)c2sc3nccc4c3c2NC(=O)N4c2cccc(Oc3ccccc3)n2)C1 [Example 635, (R)—N-(1-Acryloylpiperidin-3-yl)-4-oxo-5-(6-phenoxypyridin-2-yl)-4,5-dihydro-3H-1-thia-3,5,8-triazaacenaphthylene-2-carboxamide] |
| 5.7 |  | O=C(N[C@@H]1CCCNC1)c1sc2nccc3c2c1NC(=O)N3c1ccc2c(c1)OC(F)(F)O2 [Example 636, (R)-5-(2,2-Difluorobenzo[d][1,3]dioxol-5-yl)-4-oxo-N-(piperidin-3-yl)-4,5-dihydro-3H-1-thia-3,5,8-triazaacenaphthylene-2-carboxamide] |
| 5.7 |  | CO[C@H]1CN(C(=O)OC(C)(C)C)C[C@@H]1NC(=O)c1sc2nccc3c2c1NC(=O)N3c1ccc(Oc2ccccc2)cc1 [Example 639, (3S,4S)-tert-Butyl 3-methoxy-4-(4-oxo-5-(4-phenoxyphenyl)-4,5-dihydro-3H-1-thia-3,5,8-triazaacenaphthylene-2-carboxamido)pyrrolidine-1-carboxylate] |
| 5.6 |  | C=CC(=O)N1CCC[C@@H](NC(=O)c2sc3nccc4c3c2NC(=O)N4c2cc(OC(C)C)ccc2C)C1 [Example 640, (R)—N-(1-Acryloylpiperidin-3-yl)-5-(5-isopropoxy-2-methylphenyl)-4-oxo-4,5-dihydro-3H-1-thia-3,5,8-triazaacenaphthylene-2-carboxamide] |
| 5.6 |  | C=CC(=O)N1CCC[C@@H](NC(=O)c2sc3nccc4c3c2NC(=O)N4c2ccc(S(=O)(=O)C(C)(C)C)cc2)C1 [Example 641, (R)—N-(1-Acryloylpiperidin-3-yl)-5-(4-(tert-butylsulfonyl)phenyl)-4-oxo-4,5-dihydro-3H-1-thia-3,5,8-triazaacenaphthylene-2-carboxamide] |
| 5.3 |  | O=C(N[C@@H]1CCCNC1)c1sc2nccc3c2c1NC(=O)N3c1ccc(O)cc1 [Example 642, (R)-5-(4-Hydroxyphenyl)-4-oxo-N-(piperidin-3-yl)-4,5-dihydro-3H-1-thia-3,5,8-triazaacenaphthylene-2-carboxamide] |
| <5 |  | Cc1ccc(OC(C)C)cc1N1C(=O)Nc2c(C(=O)N[C@@H]3CCCNC3)sc3nccc1c23 [Example 644, (R)-5-(5-Isopropoxy-2-methylphenyl)-4-oxo-N-(piperidin-3-yl)-4,5-dihydro-3H-1-thia-3,5,8-triazaacenaphthylene-2-carboxamide] |
| <5 |  | O=C(N[C@@H]1CCCNC1)c1sc2nccc3c2c1NC(=O)N3c1cccc(Oc2ccccc2)n1 [Example 645, (R)-4-Oxo-5-(6-phenoxypyridin-2-yl)-N-(piperidin-3-yl)-4,5-dihydro-3H-1-thia-3,5,8-triazaacenaphthylene-2-carboxamide] |
| <5 |  | CC(=O)c1cccc(N2C(=O)Nc3c(C(=O)N[C@@H]4CCCN(C(=O)OC(C)(C)C)C4)sc4nccc2c34)c1 [Example 649, (R)-tert-Butyl 3-(5-(3-acetylphenyl)-4-oxo-4,5-dihydro-3H-1-thia-3,5,8-triazaacenaphthylene-2-carboxamido)piperidine-1-carboxylate] |
| <5 |  | CC(C)(C)S(=O)(=O)c1ccc(N2C(=O)Nc3c(C(=O)N[C@@H]4CCCNC4)sc4nccc2c34)cc1 [Example 650, (R)-5-(4-(tert-Butylsulfonyl)phenyl)-4-oxo-N-(piperidin-3-yl)-4,5-dihydro-3H-1-thia-3,5,8-triazaacenaphthylene-2-carboxamide] |
| <5 |  | CC(C)(C)OC(=O)N1CCC[C@@H](NC(=O)c2sc3nccc4c3c2NC(=O)N4c2ccc3c(c2)OC(F)(F)O3)C1 [Example 653, (R)-tert-Butyl 3-(5-(2,2-difluorobenzo[d][1,3]dioxol-5-yl)-4-oxo-4,5-dihydro-3H-1-thia-3,5,8-triazaacenaphthylene-2-carboxamido)piperidine-1-carboxylate] |
| 8.0 |  | C=CC(=O)N1CC[C@@H](O)[C@H](NC(=O)c2sc3nccc4c3c2NC(=O)N4c2ccc(Oc3ccccc3)cc2)C1 [Example 655, N-((3R,4R)-1-Acryloyl-4-hydroxypiperidin-3-yl)-4-oxo-5-(4-phenoxyphenyl)-4,5-dihydro-3H-1-thia-3,5,8-triazaacenaphthylene-2-carboxamide] |
| 6.2 |  | Cc1nc(Oc2ccccc2)cnc1N1C(=O)Nc2c(C(=O)N[C@@H]3CCCNC3)sc3nccc1c23 [Example 656, (R)-5-(3-Methyl-5-phenoxypyrazin-2-yl)-4-oxo-N-(piperidin-3-yl)-4,5-dihydro-3H-1-thia-3,5,8-triazaacenaphthylene-2-carboxamide] |
| 7.7 |  | C=CC(=O)N1CCC[C@@H](NC(=O)c2sc3nccc4c3c2NC(=O)N4c2ncc(Oc3ccccc3)nc2C)C1 [Example 657, (R)—N-(1-Acryloylpiperidin-3-yl)-5-(3-methyl-5-phenoxypyrazin-2-yl)-4-oxo-4,5-dihydro-3H-1-thia-3,5,8-triazaacenaphthylene-2-carboxamide] |
